Test results as given in patent US4547513A, “2-Arylbenzothiazoline derivatives and their use in treating angina cordis” (Santen Pharmaceutical Co., Ltd., priority 1983, dated 1985).
pIC50: −log10 of the molar value. Where a name gives a salt, the structure may show the parent alone.

How the values were obtained:
[1] = tested on: platelet aggregation (rabbit platelet rich plasma); assay: Platelet antiaggregatory activity in rabbit platelet rich plasma in vitro (Pharmacological test II); assay type: cell-based; settings: Oryctolagus cuniculus, rabbit PRP, 1 minute preincubation at 37° C., induced by collagen (3μg/ml) or ADP (3μM), inducer not given, read-out: Antiaggregation activity IC50 (50% inhibition of the control response)
Protocol: Blood was obtained from an anesthetized rabbit using 0.1 volume of 3.8% sodium citrate as anticoagulant. Platelet rich plasma (PRP) was isolated by centrifugation at 650 rpm for 10 minutes at room temperature. After preincubation of PRP (0.25 ml) with various concentrations of the test compounds (14μl) for 1 minute at 37° C., collagen (3μg/ml: final concentration) or ADP (3μM: final concentration) was added to induce aggregation and the aggregation profiles were monitored by RIKADENKI six-channel aggregometer. The control experiment contained saline instead of the test compound.
The antiaggregatory activity was represented by the concentration of the test compounds which elicited 50% inhibition of the control response.

guineapig teania coli = assay: Calciumantagonistic activity: inhibition of Ca++-evoked contraction of isolated guineapig teania coli (Pharmacological test I); assay type: cell-based; settings: Cavia porcellus, 5 min, Ca++-free-high-K Krebs solution, 32° C., 5 minutes exposure before CaCl2 (3×10^-4M), read-out: Calciumantagonistic activity IC50 (50% inhibition of Ca++-evoked contraction)
Protocol: The action potentials on the smooth muscles of uterus, teania coli and portal vein depend on calcium ion, and therefore these smooth muscle preparations are useful for screening of calciumantagonists. We measured the calciumantagonistic activity of the compounds by the method using guineapig teania coli preparation.
Isolated guineapig teania coli was suspended in a 20 ml organ bath with Krebs solution at 32° C. and bubbled with 5% carbon dioxide in oxygen. After equilibration, the muscle was washed with Ca^++ -free Krebs solution, and when the muscle had relaxed to basal level, it was suspended in Ca^++ -free-high-K Krebs solution.
The muscule was exposed to the test compounds for 5 minutes before addition of CaCl2, and the contraction evoked by CaCl2 (3×10^-4M) was recorded isotonically. The calciumantagonistic activity was represented by the concentration of the test compound which elicited 50% inhibition of Ca^++ -evoked contraction (IC50).

| SMILES | pIC50 [1] | pIC50 (guineapig teania coli) |
| --- | --- | --- |
| COc1ccc(OCCCCN2CCC(C(=O)c3ccc(C)cc3)CC2)c(C2Sc3ccccc3N2C(C)=O)c1 (stereo not shown) [compound 3, 3-Acetyl-2-(5-methoxy-2-[4-[4-(4-methylbenzoyl)-1-piperidyl]butoxy]phenyl]benzothiazoline maleate] | 5.49 | – |
| COc1ccc(OCCCCN2CCC(C(=O)c3ccc(Cl)cc3)CC2)c(C2Sc3ccccc3N2C(C)=O)c1 (stereo not shown) [compound 4, 3-Acetyl-2-[2-[4-[4-(4-chlorobenzoyl)-1-piperidyl]butoxy]-5-methoxyphenyl]benzothiazoline maleate] | 5.49 | 5.06 |
| COc1ccc(OCCCCN2CCC(C(O)c3ccccc3)CC2)c(C2Sc3ccccc3N2C(C)=O)c1 (stereo not drawn) [compound 5, 3-Acetyl-2-[2-[4-[4-(α-hydroxybenzyl)-1-piperidyl]butoxy]5-methoxyphenyl]benzothiazoline maleate] | – | 5.09 |
| COc1ccc(OCCCCN2CCC(C(=O)c3ccc(F)cc3)CC2)c(C2Sc3ccccc3N2C(C)=O)c1 (stereo not shown) [compound 6, 3Acetyl-2-[2-[4-[4-(4-fluorobenzoyl)-1-piperidyl]butoxy]-5-methoxyphenyl]benzothiazoline maleate] | 6.54 | 5.80 |
| COc1ccc(OCCCCN2CCC(C(=O)Cc3ccccc3)CC2)c(C2Sc3ccccc3N2C(C)=O)c1 (stereo not shown) [compound 7, 3-Acetyl-2-[2-[4-(4-benzylcarbonyl-1piperidyl)butoxy]-5-methoxyphenyl]benzothiazoline maleate] | – | 5.49 |
